Results taken from patent US20030073133A1, “Individualization of therapy with erectile dysfunction agents” (McGill University, priority 2001, published 2003).
Read-outs that look alike come from different tables or passages of the source. Marks after values point to notes of the source that are not given here.

Experiments:
AAMU-Ab = assay: Competitive antigen ELISA, cross-reactivity of AAMU-Ab; assay type: binding, rabbit; details: 0 = absence of inhibition or inhibition no higher than 40% at highest concentration tested (5 × 10^−3 M)
Protocol: (§1) Competitive Antigen Elisa
(§2) Buffers and water without additives are filtered through millipore filters and kept for 1 week. BSA, antibodies, Tween™ 20 and horse radish peroxidase conjugates are added to these buffers and water just prior to use. Urine samples are usually collected 4 hours after drinking a cup of coffee (instant or brewed with approximately 100 mg of caffeine per cup) and stored at −80° C. The urine samples are diluted 10 times with sodium phosphate buffer (620 mosm, pH 7.50) and are subsequently diluted with water to give concentrations of AAMU and 1X no higher than 3×10^−6 M in the ELISA. All the pipettings are done with an eight-channel pipette, except those of the antibody and sample solutions. Starting with the last well, 100 μL of a carbonate buffer (100 mM, pH 9.6) containing 2.5 μg mL-1 antibodies are added to each well. After 90 min. at room temperature, the wells are washed three times with 100 mL of TPB: isotonic sodium phosphate buffer (310 mosm, pH 7.50) containing 0.05% Tween™ 20.
(§3) After the initial wash, unoccupied sites are blocked by incubation for 90 min. at room temperature with 100 μL TBP containing 3% BSA. The wells are washed four times with 100 μL TPB. The washing is followed by additions of 50 μL of 12 mg mL^−1 AAMU-HRP or 1X-HRP conjugate in 2× TPB containing 2% BSA, and 50 μL of either water, standard (13 standards; AAMU or 1X, 2×10^−4 to 2×10^−8 M) or sample in duplicate. The microplate is gently shaken with an orbital shaker at room temperature for 3-4 hours. The wells are washed three times with 100 μL TPB containing 1% BSA and three times with water containing 0.05% Tween™ 20. To the washed plate is added 150 μL of a substrate buffer composed of citric acid (25 mM) and sodium phosphate dibasic buffer (50 mM, pH 5.0) containing 0.06% hydrogen peroxide and 0.04% o-phenylenediamine hydrochloride.
as §2, with “were” for “are”, “They were” for “The urine samples are”, “mL-^1” for “mL-1”, “was pipetted.” for “are added to each well.”, “μL” for “mL”
(§4) After the initial wash, unoccupied sites were blocked by incubation for 90 min. at room temperature with 100 μL TBP containing 3% BSA. The wells were washed four times with 100 μL TPB. This was followed by additions of […] of 12 mg mL^−1 AAMU-HRP or 1X-HRP conjugate in 2× TPB containing 2% BSA, and 50 μL of either water, standard (13 standards; AAMU or 1X, 2×10^−4 to 2×10^−8 M) or sample in duplicate. The microplate was gently shaken with an orbital shaker at room temperature for 3-4 hours. The wells were washed three times with 100 μL with TPB containing 1% BSA and three times with water containing 0.05% Tween™ 20. To the washed plate was added 150 μL of a substrate buffer composed of citric acid (25 mM) and sodium phosphate dibasic buffer (50 mM, pH 5.0) containing 0.06% hydrogen peroxide and 0.04% o-phenylenediamine hydrochloride. After 20 min. at room temperature with shaking, the reaction was stopped with 50 μL of 2.5 N HCl.
(§5) The cross reactivities of AAMU-Ab and 1X-Ab were tested using a wide variety of caffeine metabolites and structural analogs (Table 2 below).

1X-Ab = assay: Competitive antigen ELISA, cross-reactivity of 1X-Ab; assay type: binding, rabbit; details: 0 = absence of inhibition or inhibition no higher than 40% at highest concentration tested (5 × 10^−3 M)
Protocol: as §1, §2, §3
as §2, with “were” for “are”, “They were” for “The urine samples are”, “mL-^1” for “mL-1”, “was pipetted.” for “are added to each well.”, “μL” for “mL”
as §4, §5

impotent men = details: cited from earlier work
[1] = test system: poor vs. extensive metabolizers; details: cited from earlier work
[2] = test system: slow and fast acetylators; details: cited from earlier work
[3] = test system: individuals prescribed sildenafil; details: postmarketing; cited from earlier work
[4] = intracavernosal, mixed populations

| Structure (SMILES) | % Cross-Reaction AAMU-Ab (AAMU-Ab) | % Cross-Reaction IX-Ab (1X-Ab) | also measured |
| --- | --- | --- | --- |
| Cc1nc2[nH]c(=O)[nH]c(=O)c2[nH]1 [8-Methyl Xanthine] | 0% | 0% | – |
| CCCCC[C@H](O)/C=C/[C@H]1[C@H](O)CC(=O)[C@@H]1CCCCCCC(=O)O [Alprostadil, prostaglandin E1] | – | – | average duration of erection (impotent men; intracavernosal): 64 min; attempts in which erections were achieved (impotent men; [4]): 87%; men who achieved erections (impotent men; [4]): Ninety-four |
| Cn1c(=O)[nH]c2ncn(C)c2c1=O [1,7-Dimethyl Xanthine (Paraxanthine), 1,7-Dimethyl Xanthine] | 0% | 0.5% | – |
| Cn1cnc2[nH]c(=O)[nH]c(=O)c21 [7-Methyl Xanthine] | 0% | 0% | – |
| COc1ccc(Cc2nccc3cc(OC)c(OC)cc23)cc1OC [Papaverine] | – | – | penile fibrosis (impotent men; after 1 year of treatment): up to 60%; response rates (impotent men; alone or with phentolamine, mixed populations of impotent men): about 50%; average duration of erection (impotent men; intracavernosal): 50 min |
| Nc1nc2nc[nH]c2c(=O)[nH]1 [Guanine] | 0% | 0% | – |
| CC(=O)Nc1c(N)n(C)c(=O)n(C)c1=O [5-Acetamino-6-amino-1,3-dimethyluracil] | 0% | 0% | – |
| Cn1c(=O)[nH]c(=O)c2[nH]cnc21 [3-Methyl Xanthine] | 0% | 0% | – |
| O=c1[nH]c(=O)c2[nH]c(=O)[nH]c2[nH]1 [Uric acid] | 0% | 0% | – |
| Cn1c(=O)[nH]c2[nH]c(=O)[nH]c2c1=O [1-Methyluric acid] | 0% | 11% | – |
| COc1ccc2c(c1)[C@]13CCCC[C@@H]1[C@H](C2)N(C)CC3 [Dextromethorphan] | – | – | mean performance +/−SE ([1]; EMs (extensive metabolizers)): 95+/−0.5%; mean performance +/−SE ([1]; PMs (poor metabolizers)): 86+/−6% |
| Cn1c(=O)[nH]c2nc[nH]c2c1=O [1-Methyl Xanthine (1x), 1-Methyl Xanthine] | 0% | 100% | – |
| Nc1ccc(S(=O)(=O)c2ccc(N)cc2)cc1 [dapsone, Dapsone] | – | – | adverse reactions ([2]; fast acetylators): 17%; adverse reactions ([2]; slow acetylators): 46% |
| O=c1[nH]cnc2nc[nH]c12 [Hypoxanthine] | 0% | 0% | – |
| CC(=O)Nc1c(N)n(C)c(=O)[nH]c1=O [5-Acetamino-6-amino-1-methyluracil] | 100% | 0% | – |
| O=c1cc[nH]c(=O)[nH]1 [Uracil] | 0% | 0% | – |
| Cn1c(=O)[nH]c2[nH]c(=O)n(C)c2c1=O [1,7-Dimethyluric acid] | 0% | 0% | – |
| CCCc1nn(C)c2c(=O)[nH]c(-c3cc(S(=O)(=O)N4CCN(C)CC4)ccc3OCC)nc12 [sildenafil, Sildenafil] | – | – | deaths identified as having cardiovascular events [3]: Forty-six; deaths with definite or suspected myocardial infarction [3]: 21; individual deaths reported after prescription [3]: 123 |
| Cn1c(=O)c2c(ncn2C)n(C)c1=O [1,3,7-Trimethyl Xanthine (Caffeine), 1,3,7-Trimethyl Xanthine] | 0% | 0% | – |
| O=c1[nH]c(=O)c2[nH]cnc2[nH]1 [Xanthine] | 0^a % | 0% | – |
| Cn1cnc2c1c(=O)[nH]c(=O)n2C [3,7-Dimethyl Xanthine (Theobromine), 3,7-Dimethyl Xanthine] | 0% | 0% | – |
| CC(=O)Nc1c(N)[nH]c(=O)[nH]c1=O [5-Acetamino-6-amino-uracil] | 0.6% | 0% | – |
| Cn1c(=O)c2[nH]cnc2n(C)c1=O [1,3-Dimethyl Xanthine (Theophylline), 1,3-Dimethyl Xanthine] | 0% | 0.2% | – |
